Source: the supplement of paper PMC10307832

The cell lines below were run with C1CC(C2=C(C1)C3=C(N2)C=CC(=C3)Cl)C(=O)N [Selisistat] + Nc1ncn([C@H]2C[C@H](O)[C@@H](CO)O2)c(=O)n1 [Decitabine] (partner 2 µM) (assay: relative viability (nuclei count vs DMSO), 5 days (fraction); higher = more cells survive). Conditions: first compound 40 µM.
Method in brief: (§1)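 Lung cancer cell lines, seeded in 1536-well plates, were treated the following day by pin tool with a single drug or with five library-drug doses (not always all listed) in √10 steps on top of a fixed anchor-drug dose. Cells were fixed and nuclei stained in one step after 5 days, and nuclei were counted. Relative viability is the nuclei count for treated wells divided by that for vehicle wells, reported as medians of duplicate plates.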

Cell Line	relative viability
PC-14	0.243
EKVX	0.368
LC-2-ad	0.775
NCI-H1975	0.365

These cell lines were tested with C1CC(C2=C(C1)C3=C(N2)C=CC(=C3)Cl)C(=O)N [Selisistat] + CC(C)C[C@H](NC(=O)[C@H](Cc1ccccc1)NC(=O)c1cnccn1)B(O)O [Bortezomib] (partner 0.002 µM) in the same assay as above. Conditions: first compound 0.4 µM.
Method in brief: as §1

Cell Line	relative viability
HCC-44	0.857
LU99A	1.17
BEN	0.888
HARA	1.12
HCC-78	0.515
NCI-H322M	1.36
LCLC-97TM1	0.696
NCI-H2009	1.01
A-427	1.02
NCI-H441	0.74
NCI-H661	0.858
NCI-H1734	0.902
NCI-H460	1.04
NCI-H2347	0.772
SK-LU-1	1.23
201T	1.13
NCI-H1915	1.03

Cell Line	relative viability
HCC-827	1.06
LXF-289	1.02
NCI-H23	1.02
NCI-H647	0.95
NCI-H1651	1.02
EPLC-272H	0.933
NCI-H1792	0.967
NCI-H1355	1.18
NCI-H3122	1
NCI-H1437	0.575
NCI-H1755	1.04
NCI-H2023	0.978
HCC-15	1.09
PC-14	0.848
EKVX	1
LC-2-ad	1
NCI-H1975	0.434

Same assay, conditions: first compound 1.265 µM

Cell Line	relative viability
HCC-44	0.908
LU99A	1.15
BEN	0.984
HARA	1.19
HCC-78	0.471
NCI-H322M	1.25
LCLC-97TM1	0.77
NCI-H2009	1.06
A-427	0.981
NCI-H441	0.588
NCI-H661	0.816
NCI-H1734	0.879
NCI-H460	1.14
NCI-H2347	1.11
201T	1.08
NCI-H1915	0.943
HCC-827	1.04

Cell Line	relative viability
LXF-289	1.05
NCI-H23	1.11
NCI-H647	0.987
NCI-H1651	0.939
EPLC-272H	0.985
NCI-H1792	1
NCI-H1355	1.21
NCI-H3122	1
NCI-H1437	0.451
NCI-H1755	0.972
NCI-H2023	0.961
HCC-15	1.03
PC-14	0.713
EKVX	1
LC-2-ad	1.02
NCI-H1975	0.339

Same assay, conditions: first compound 4 µM

Cell Line	relative viability
HCC-44	1.02
LU99A	1.33
BEN	0.492
HARA	1.14
NCI-H2009	0.583
A-427	1.01
NCI-H661	0.664
NCI-H1734	0.946
SK-LU-1	1.27
201T	1.1
NCI-H1915	0.953
HCC-827	0.994
LXF-289	0.832
NCI-H1651	0.868
NCI-H3122	0.837
NCI-H1437	0.378
NCI-H1755	0.955
NCI-H2023	0.849
PC-14	0.861
EKVX	0.671
LC-2-ad	1.03
NCI-H1975	0.33

Same assay, conditions: first compound 12.65 µM

Cell Line	relative viability
HCC-44	0.926
LU99A	1.16
BEN	0.73
HARA	1.15
HCC-78	0.489
NCI-H322M	1.42
LCLC-97TM1	0.555
NCI-H2009	0.921
A-427	1.02
NCI-H441	0.467
NCI-H661	0.701
NCI-H1734	1.1
NCI-H460	1.02
NCI-H2347	0.907
SK-LU-1	0.998
201T	1.11
NCI-H1915	1.02

Cell Line	relative viability
HCC-827	0.886
LXF-289	0.937
NCI-H23	1.1
NCI-H647	0.885
NCI-H1651	0.874
EPLC-272H	0.859
NCI-H1792	0.71
NCI-H1355	1.13
NCI-H3122	1.1
NCI-H1437	0.431
NCI-H1755	1.01
NCI-H2023	0.95
HCC-15	1.04
PC-14	0.886
EKVX	0.84
LC-2-ad	0.985
NCI-H1975	0.354

Same assay, conditions: first compound 40 µM

Cell Line	relative viability
HCC-44	0.952
LU99A	1.11
BEN	0.609
HARA	1.06
HCC-78	0.514
NCI-H322M	1.39
LCLC-97TM1	0.553
NCI-H2009	0.997
A-427	0.952
NCI-H441	0.482
NCI-H661	0.704
NCI-H1734	0.869
NCI-H460	1.12
NCI-H2347	0.831
SK-LU-1	1.75
201T	1.08
NCI-H1915	1

Cell Line	relative viability
HCC-827	0.951
LXF-289	0.984
NCI-H23	1.08
NCI-H647	1.16
NCI-H1651	0.847
EPLC-272H	0.893
NCI-H1792	1.07
NCI-H1355	1.35
NCI-H3122	0.995
NCI-H1437	0.515
NCI-H1755	0.925
NCI-H2023	0.928
HCC-15	1.29
PC-14	0.888
EKVX	1.04
LC-2-ad	1.05
NCI-H1975	0.388
